Assay results as given in US9067914B1, “Tropomyosin-related kinase (TRK) inhibitors” (Genzyme Corporation, priority 2013, dated 2015).
Counter-ions that a name gives are not always drawn.

Tests used:
TrkA = TrkA (Homo sapiens (Human), UniProt P04629); assay: TrkA activity, off-chip mobility shift assay (LabChip 3000); format: biochemical; conditions: 55 μM ATP (ATP Km); n/d = none detected
Excerpt: (§1) Reagents and consumables were purchased from Sigma Aldrich, Carna Biosciences, or Caliper Life Sciences. All assay reaction conditions for IC50 determinations were within the linear range with respect to time and enzyme concentration. […] The LabChip 3000 separates and measures the fluorescent signal of fluorescein labeled peptide substrate and fluorescein labeled peptide product present in each well. Results are expressed as percent conversion by measuring peak height for both the substrate and product and dividing the product peak height by the sum of peak heights for both substrate and product.

[1] = system: PGPS knee arthritis in male Lewis rats; assay: Reactivated peptidoglycan-polysaccharide (PGPS) knee arthritis; format: in vivo, rat; conditions: for Gait scores and deficiency, first reactivation / Gait scores and deficiency, second reactivation: significant reduction: male Lewis rats; for Gait scores and deficiency, first reactivation: days 1-4; for Gait scores and deficiency, second reactivation: significant reduction: days 14-18
Excerpt: Male Lewis rats were acclimated to the testing facility for 7 days. The rats were housed in 5 per cage in shoe-box polycarbonate cages with wire tops, wood chip bedding and suspended food and water bottles.
On day −21, the male Lewis rats were randomized into treatment groups by body weight. The rats were anesthetized and injected with peptidoglycan-polysaccharide (PGPS) into the right knee to induce PGPS arthritis. Arthritis was reactivated on days 0 and 14 by an IV tail injection of PGPS.
The rats were weighed at baseline on days 0, 4, 14 and 18. Knee thickness was measured by caliper at baseline and on days 0, 2, 4, 14, 16 and 18. Gait analysis occurred on days 0-4 and 14-18, with video recording of selected animals on days 3 and 17. Gait analysis was performed by applying ink to the ventral surface of the foot and documenting weight bearing during movement across paper.
The animals were terminated at day 18. Right knees were removed, trimmed of extraneous tissue, and collected into 10% neutral buffered formalin. After two days in the formalin buffer and three days in 10% formic acid decalcifier, the knees were cut into two approximately equal halves in the frontal plane and processed for paraffin embedding and stained with T.Blue. Histological examinations were subsequently performed for bone resorption, inflammation, pannus and cartilage damage.
Body weights, gait deficiency and caliper measurements were analyzed using a one-way analysis of variance (1-way ANOVA) with Dunnett's multiple comparison post-test. Gait scores were analyzed using a Kruskal-Wallis test (non-parametric ANOVA) with Dunn's multiple comparison post-test. Histopathology scores were analyzed using a Kruskal-Wallis test (non-parametric ANOVA) with Dunn's multiple comparison post-test.

[2] = system: MIA induced osteoarthritis in male Wistar rats; assay: Monosodium iodoacetate (MIA) induced osteoarthritis, weight bearing; format: in vivo, rat
Excerpt: Male Wistar rats were acclimated to the testing facility for 5 days. The rats were individually housed in micro-isolator shoe-box polycarbonate cages with cob bedding and water bottles. Dry pelleted food of known composition and nutritional components was provided ad libitum
Animals were randomized by treatment type using an online random number generator. Each treatment group was assigned a number, entered into the random number generator, recorded then translated back to the associated treatment. All injections were given in the left leg unless the treatment indicated “Contralateral” in which case the injection was given in the right leg. Both legs were shaved on all animals at the time of the treatment injections to blind the test administrator.
The rats were weighed the day prior to injection with monosodium iodoacetate (MIA), the agent used to induce osteoarthritis in the animals. The day of injection, rats from groups 2-8 received a subcutaneous (SC) dose of buprenorphine at least one hour prior to induction. […] Naïve animals were then placed in recovery. All other animals received an injection of MIA. In animals receiving MIA, the hind leg was flexed and an injection of MIA (25 μL) was injected into the intra-articular space using a 27 gauge ½ inch needle. Standard postoperative care was performed (twice daily for 48 hours).
On Day 8 the test article was administered as described above. On Days −1, 7, 14, 21, 28, and 35 post-induction, weight bearing was assessed. A weight bearing scale was utilized using a plexiglass chamber to assess the amount of weight distributed in each hind limb. The animals were acclimated to the chamber for at least 5 minutes prior to testing and the weight distribution was recorded 5 times.
The animals were terminated at day 36. Both stifles were collected from each animal; the skin was removed from the joint and the patella was removed while leaving as much of the fat pad intact with the joint. The stifle was placed in the appropriate cassette with rolled gauze to secure the stifle in the cassette and then placed into 4% Paraformaldehyde. These samples were examined histologically.

TrkB = TrkB (Homo sapiens (Human), UniProt Q16620); assay: TrkB activity, off-chip mobility shift assay (LabChip 3000); format: biochemical; conditions: 70 μM ATP (ATP Km); n/d = none detected
Excerpt: as §1

[3] = intra-articular on day -7 (Triamcinolone 0.06 mg; test compound 1 mg)
[4] = intra-articular on day -7, 1 mg
[5] = right knee, day 18, intra-articular on day -7 (Triamcinolone 0.06 mg; test compound 1 mg)

TrkA, sequence (P04629 33-796): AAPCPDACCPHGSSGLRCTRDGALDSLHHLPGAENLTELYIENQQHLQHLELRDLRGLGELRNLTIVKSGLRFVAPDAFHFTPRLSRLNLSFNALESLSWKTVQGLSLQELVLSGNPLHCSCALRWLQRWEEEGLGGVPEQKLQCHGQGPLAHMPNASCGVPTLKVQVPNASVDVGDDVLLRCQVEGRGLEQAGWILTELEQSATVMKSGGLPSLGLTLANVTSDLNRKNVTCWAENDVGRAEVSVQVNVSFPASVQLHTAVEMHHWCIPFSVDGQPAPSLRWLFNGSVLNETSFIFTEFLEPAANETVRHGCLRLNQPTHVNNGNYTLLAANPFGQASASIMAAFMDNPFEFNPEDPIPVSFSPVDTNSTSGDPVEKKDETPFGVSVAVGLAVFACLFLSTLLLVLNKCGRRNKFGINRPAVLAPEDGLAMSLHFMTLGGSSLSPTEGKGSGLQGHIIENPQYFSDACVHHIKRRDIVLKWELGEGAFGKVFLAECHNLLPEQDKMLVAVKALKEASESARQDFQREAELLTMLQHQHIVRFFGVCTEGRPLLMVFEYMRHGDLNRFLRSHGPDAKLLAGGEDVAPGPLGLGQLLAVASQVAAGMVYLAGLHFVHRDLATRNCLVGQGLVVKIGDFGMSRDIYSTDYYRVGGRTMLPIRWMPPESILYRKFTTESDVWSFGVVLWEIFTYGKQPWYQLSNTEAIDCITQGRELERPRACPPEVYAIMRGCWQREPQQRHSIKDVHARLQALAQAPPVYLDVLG
TrkB, sequence (Q16620 32-822): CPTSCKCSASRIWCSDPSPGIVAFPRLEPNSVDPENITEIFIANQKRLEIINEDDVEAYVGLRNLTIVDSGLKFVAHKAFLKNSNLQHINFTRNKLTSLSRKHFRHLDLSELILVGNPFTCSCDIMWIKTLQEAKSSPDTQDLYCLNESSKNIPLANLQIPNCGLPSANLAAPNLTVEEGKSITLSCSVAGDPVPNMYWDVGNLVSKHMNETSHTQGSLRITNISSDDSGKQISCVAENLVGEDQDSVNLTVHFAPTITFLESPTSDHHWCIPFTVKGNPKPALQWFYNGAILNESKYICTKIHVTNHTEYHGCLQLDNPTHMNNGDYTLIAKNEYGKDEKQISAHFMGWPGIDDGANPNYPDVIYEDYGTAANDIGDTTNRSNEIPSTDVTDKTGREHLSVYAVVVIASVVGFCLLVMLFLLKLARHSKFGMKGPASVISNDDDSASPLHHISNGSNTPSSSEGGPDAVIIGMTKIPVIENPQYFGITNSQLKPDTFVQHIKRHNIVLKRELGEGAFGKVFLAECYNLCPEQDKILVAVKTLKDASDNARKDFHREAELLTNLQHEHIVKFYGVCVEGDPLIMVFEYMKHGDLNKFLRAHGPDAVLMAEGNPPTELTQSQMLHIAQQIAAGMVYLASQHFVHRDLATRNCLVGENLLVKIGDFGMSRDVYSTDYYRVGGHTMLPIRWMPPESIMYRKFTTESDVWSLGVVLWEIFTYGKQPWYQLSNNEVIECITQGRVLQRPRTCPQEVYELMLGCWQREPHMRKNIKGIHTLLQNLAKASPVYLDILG

IC50 (TrkA) | IC50 (TrkB) | Structure (SMILES) | further results
0.3 nM | 0.1 nM | COc1ccc(COc2ccc(Cn3c(N)nc4cc(-c5cnn(C)c5)cnc43)cc2OC)cc1 [Ex. 3-15, 3-(3-Methoxy-4-((4-methoxybenzyl)oxy)benzyl)-6-(1-methyl-1H-pyrazol-4-yl)-3H-imidazo[4,5-b]pyridin-2-amine] | Knee caliper measurements [1, 3]: significantly reduced on day 14; Reduction of knee caliper AUC [1, 3]: generally unaffected; Reduction of gait scores and deficiency AUC, first reactivation [1, 4]: 92-93%; Reduction of gait scores and deficiency AUC, second reactivation [1, 4]: 85-86%; Reduction of summed AUC for gait deficiency [1, 4]: 84%; Gait scores and deficiency, first reactivation [1, 3]: significant reductions; Gait scores and deficiency, second reactivation: significant reduction [1, 3]: Scores were significantly reduced throughout the second reactivation, and reductions in deficiency were significant on days 15, 17, and 18; Histopathology: reduction in summed scores [1, 5]: 70%; Histopathology: reductions in all parameters (bone resorption, inflammation, pannus, cartilage damage) [1, 5]: 49-94%; Efficacy (weight bearing) ([2]; 10 μg Contralateral injection on Day 8): efficacy at 3 and 4 weeks following administration; Efficacy (weight bearing) ([2]; 10 μg Ipsilateral injection on Day 8): efficacy was observed at 2 through 4 weeks following administration; Efficacy (weight bearing) ([2]; 30 μg Contralateral injection on Day 8): efficacy at only the 3 week timepoint; Efficacy (weight bearing) ([2]; 30 μg Ipsilateral injection on Day 8): effective throughout the four weeks following administration; Systemic pain relief (weight bearing) ([2]; 100 μg Contralateral injection on Day 8, 1-4 weeks): did not show systemic pain relief at any timepoint; Efficacy (weight bearing) ([2]; 100 μg Ipsilateral injection on Day 8): effective throughout the four weeks following administration; Comparison with MIA/LRS at day 35 (p<0.05) ([2]; Ipsilateral 30 μg): MIA/LRS was significantly worse; Comparison with MIA/LRS at day 35 (p<0.05) ([2]; Ipsilateral 100 μg): MIA/LRS was significantly worse; Body weight results ([2]; male Wistar rats, intra-articular on Day 8): No adverse observations; Histopathology of the knee joint ([2]; stifles collected at day 36): no adverse changes
– | – | C[C@]12C=CC(=O)C=C1CC[C@H]1[C@@H]3C[C@@H](O)[C@](O)(C(=O)CO)[C@@]3(C)C[C@H](O)[C@@]12F [Triamcinolone, reference compound] | Knee caliper measurements [1, 3]: significantly reduced on days 2, 4, 16, and 18, as well as prior to the first reactivation on day 0; Reduction of knee caliper AUC [1, 3]: 53-106%; Gait scores and deficiency, first reactivation [1, 3]: significantly reduced; Gait scores and deficiency, second reactivation: significant reduction [1, 3]: on day 15, 17, and 18; Histopathology: reduction in summed scores [1, 5]: 74%
449 nM | 219 nM | COc1ccc(C(C)Oc2ccc(Cn3cnc4cc(-c5ccnn5C)cnc43)cc2OC)cn1 (stereo not drawn) [Ex. 3-58-1, 3-(3-methoxy-4-(1-(6-methoxypyridin-3-yl)ethoxy)benzyl)-6-(1-methyl-1H-pyrazol-5-yl)-3H-imidazo[4,5-b]pyridine formate] | –
1030 nM | 637 nM | COc1ccc(COc2ccc(Cn3cnc4cc(N5CCC(N)CC5)ccc43)cc2OC)cn1 [Ex. 3-12, 1-(1-(3-Methoxy-4-((6-methoxypyridin-3-yl)methoxy)benzyl)-1H-benzo[d]imidazol-5-yl)piperidin-4-amine] | –
0.4 nM | 0.6 nM | COc1cc(C(C)n2c(N)nc3cc(-c4cnn(C)c4)cnc32)ccc1OCc1ccc(C(F)(F)F)nc1 (stereo not drawn) [Ex. 3-53, 3-(1-(3-methoxy-4-((6-(trifluoromethyl)pyridin-3-yl)methoxy)phenyl)ethyl)-6-(1-methyl-1H-pyrazol-4-yl)-3H-imidazo[4,5-b]pyridin-2-amine] | –
39 nM | 41 nM | COc1cc2c(cn1)C(Oc1ccc(Cn3c(N)nc4cc(-c5cnn(C)c5)cnc43)cc1OC)CCC2 (stereo not drawn) [Ex. 3-44, 3-(3-methoxy-4-((3-methoxy-5,6,7,8-tetrahydroisoquinolin-8-yl)oxy)benzyl)-6-(1-methyl-1H-pyrazol-4-yl)-3H-imidazo[4,5-b]pyridin-2-amine] | –
0.9 nM | 0.6 nM | COc1cc(Cn2cnc3cc(-c4cnn(C5CCNCC5)c4)cnc32)ccc1OCc1ccc(C)nc1 [Ex. 3-20, 3-(3-Methoxy-4-((6-methylpyridin-3-yl)methoxy)benzyl)-6-(1-(piperidin-4-yl)-1H-pyrazol-4-yl)-3H-imidazo[4,5-b]pyridine] | –
2 nM | 0.7 nM | COc1ccc(COc2ccc(Cn3c(N)nc4cc(-c5ccncc5)cnc43)cc2OC)cn1 [Ex. 3-37-5, 3-(3-methoxy-4-((6-methoxypyridin-3-yl)methoxy)benzyl)-6-(pyridin-4-yl)-3H-imidazo[4,5-b]pyridin-2-amine] | –
0.3 nM | 0.6 nM | COc1cc(Cn2c(N)nc3cc(-c4cnn(C)c4)cnc32)ccc1OCc1ccc(C(F)(F)C(F)(F)F)cc1 [Ex. 3-39, 3-(3-methoxy-4-((4-(perfluoroethyl)benzyl)oxy)benzyl)-6-(1-methyl-1H-pyrazol-4-yl)-3H-imidazo[4,5-b]pyridin-2-amine] | –
6020 nM | 4280 nM | COc1ccc(COc2ccc(Cn3cnc4cc(N5CCN(C)CC5=O)ccc43)cc2OC)cn1 [Ex. 3-29, 1-(1-(3-Methoxy-4-((6-methoxypyridin-3-yl)methoxy)benzyl)-1H-benzo[d]imidazol-5-yl)-4-methylpiperazin-2-one] | –
5 nM | 2 nM | COc1ccc(COc2ccc(Cn3c(N)nc4cc(-c5cccnc5)cnc43)cc2OC)cn1 [Ex. 3-37-6, 3-(3-methoxy-4-((6-methoxypyridin-3-yl)methoxy)benzyl)-6-(pyridin-3-yl)-3H-imidazo[4,5-b]pyridin-2-amine] | –
470 nM | 349 nM | COc1ccc(COc2ccc(Cn3cnc4cc(N5CCN6CCC5CC6)cnc43)cc2OC)cn1 [Ex. 3-18-4, 4-(3-(3-Methoxy-4-((6-methoxypyridin-3-yl)methoxy)benzyl)-3H-imidazo[4,5-b]pyridin-6-yl)-1,4-diazabicyclo[3.2.2]nonane] | –
1 nM | 0.9 nM | COc1ccc(COc2ccc(Cn3cnc4cc(-c5cnn(C6CCNCC6)c5)cnc43)cc2OC)cn1 [Ex. 3-19, 3-(3-Methoxy-4-((6-methoxypyridin-3-yl)methoxy)benzyl)-6-(1-(piperidin-4-yl)-1H-pyrazol-4-yl)-3H-imidazo[4,5-b]pyridine] | –
0.2 nM | 0.6 nM | COc1cc(Cn2c(N)nc3cc(-c4cnn(C)c4)cnc32)ccc1OCc1ccc(SC(F)(F)F)cc1 [Ex. 3-40-2, 3-(3-methoxy-4-((4-((trifluoromethyl)thio)benzyl)oxy)benzyl)-6-(1-methyl-1H-pyrazol-4-yl)-3H-imidazo[4,5-b]pyridin-2-amine] | –
1160 nM | 372 nM | COc1ccc(COc2ccc(Cn3cnc4cc(C5=CC6(O)CCCN5C6)ccc43)cc2OC)cn1 (stereo not drawn) [Ex. 3-33, 7-(1-(3-Methoxy-4-((6-methoxypyridin-3-yl)methoxy)benzyl)-1H-benzo[d]imidazol-5-yl)-1-azabicyclo[3.2.1]oct-6-en-5-ol] | –
90 nM | 31 nM | COc1ccc(COc2ccc(Cn3cnc4cc(N5CCOCC5)cnc43)cc2OC)cn1 [Ex. 3-18-2, 4-(3-(3-Methoxy-4-((6-methoxypyridin-3-yl)methoxy)benzyl)-3H-imidazo[4,5-b]pyridin-6-yl)morpholine] | –
